Laboratory results taken from patent publication US20250270584A1, “Gene editing to provide insect resistance in crops” (The Regents of the University of California, priority 2022, published 2025).

Experiments:
BoGLR3.3 = test: Single-cell Ca2+ imaging in COS-7 cells expressing BoGLR3.3; format: cell-based, Brassica oleracea; conditions: COS-7 cells expressing BoGLR3.3 alone, external Glu application
Experimental: (§1) The full-length coding sequences were amplified from cDNA of Arabidopsis (GLR3.1, GLR3.3, and GLR3.6), B. oleracea (BoGLR3.3) or O. sativa (OsGLR3.1). The coding sequences of GLR3.3-CD2 and GLR3.3-T3 were generated through site-directed mutagenesis with GLR3.3 as template. All coding sequences respectively inserted into a dual-promoter vector pBudCE4.1 (Invitrogen) with coding sequence of GCaMP6s for co-expression in […] or COS-7 cells as previously described. Mammalian cells were cultured in DMEM supplemented with 10% FBS in a 5% CO2 incubator at 37° C. under controlled humidity, and transfected using a Lipofectamine 3000 Transfection Reagent kit (Invitrogen).
(§2) COS-7 cells expressing GCaMP6s together with various GLR proteins were monitored by a Zeiss AxioObserver ZI inverted microscope (Ivision 4.5 software) with 2-s intervals under a 20× objective as previously described. The standard solution for Ca^2+ imaging contained 120 mM NaCl, 3 mM KCl, 1 mM MgCl2, 1.2 mM NaHCO3, 10 mM glucose, 10 mM HEPES, pH 7.5. At 60 s after initiation of the imaging procedure, the bath was perfused using a peristaltic pump with the standard solution supplemented with 100 mM glutamate to elicit Ca^2+ entry through active channels.

GLR3.3 channel [1] = molecular target: T1, GLR3.3 channel (Arabidopsis thaliana, UniProt Q9C8E7); test: Single-cell Ca2+ imaging in COS-7 cells expressing GLR3.3; format: cell-based; design: expressed in transfected cells; host or cells: COS-7 (Ca2+ imaging); conditions: COS-7 cells expressing GLR3.3 alone, external Glu application (100 mM glutamate)
T1 sequence (Q9C8E7 24-933): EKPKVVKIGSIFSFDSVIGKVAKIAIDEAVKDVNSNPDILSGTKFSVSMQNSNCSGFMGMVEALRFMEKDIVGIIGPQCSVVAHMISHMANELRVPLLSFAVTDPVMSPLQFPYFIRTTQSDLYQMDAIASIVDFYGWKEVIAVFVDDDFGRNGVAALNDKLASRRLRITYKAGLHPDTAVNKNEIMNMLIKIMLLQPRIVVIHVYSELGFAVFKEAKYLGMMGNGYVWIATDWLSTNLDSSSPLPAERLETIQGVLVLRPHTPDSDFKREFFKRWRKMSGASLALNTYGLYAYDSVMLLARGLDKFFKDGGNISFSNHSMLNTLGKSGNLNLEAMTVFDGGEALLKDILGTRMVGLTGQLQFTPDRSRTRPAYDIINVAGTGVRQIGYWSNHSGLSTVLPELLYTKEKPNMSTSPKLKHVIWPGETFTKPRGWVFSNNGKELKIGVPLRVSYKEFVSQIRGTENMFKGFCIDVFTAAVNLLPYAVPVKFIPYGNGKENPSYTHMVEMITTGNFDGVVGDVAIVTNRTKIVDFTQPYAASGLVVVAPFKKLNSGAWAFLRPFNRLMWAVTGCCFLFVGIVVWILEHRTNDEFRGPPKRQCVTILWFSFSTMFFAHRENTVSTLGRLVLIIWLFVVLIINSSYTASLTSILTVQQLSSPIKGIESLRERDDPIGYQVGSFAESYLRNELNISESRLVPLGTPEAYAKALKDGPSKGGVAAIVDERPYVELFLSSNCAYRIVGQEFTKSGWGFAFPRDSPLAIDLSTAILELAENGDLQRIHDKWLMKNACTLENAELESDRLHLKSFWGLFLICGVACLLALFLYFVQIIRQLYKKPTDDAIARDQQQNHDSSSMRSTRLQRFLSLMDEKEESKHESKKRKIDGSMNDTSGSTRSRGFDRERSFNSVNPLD
Experimental: as §1, §2

OsGLR3.1 = molecular target: T2, OsGLR3.1 (Oryza sativa subsp. japonica, UniProt Q7XP59); test: Single-cell Ca2+ imaging in COS-7 cells expressing OsGLR3.1; format: cell-based; conditions: COS-7 cells expressing OsGLR3.1 alone, external Glu application
T2 construct: expressed in transfected cells; host or cells: COS-7
T2 sequence (Q7XP59 21-938): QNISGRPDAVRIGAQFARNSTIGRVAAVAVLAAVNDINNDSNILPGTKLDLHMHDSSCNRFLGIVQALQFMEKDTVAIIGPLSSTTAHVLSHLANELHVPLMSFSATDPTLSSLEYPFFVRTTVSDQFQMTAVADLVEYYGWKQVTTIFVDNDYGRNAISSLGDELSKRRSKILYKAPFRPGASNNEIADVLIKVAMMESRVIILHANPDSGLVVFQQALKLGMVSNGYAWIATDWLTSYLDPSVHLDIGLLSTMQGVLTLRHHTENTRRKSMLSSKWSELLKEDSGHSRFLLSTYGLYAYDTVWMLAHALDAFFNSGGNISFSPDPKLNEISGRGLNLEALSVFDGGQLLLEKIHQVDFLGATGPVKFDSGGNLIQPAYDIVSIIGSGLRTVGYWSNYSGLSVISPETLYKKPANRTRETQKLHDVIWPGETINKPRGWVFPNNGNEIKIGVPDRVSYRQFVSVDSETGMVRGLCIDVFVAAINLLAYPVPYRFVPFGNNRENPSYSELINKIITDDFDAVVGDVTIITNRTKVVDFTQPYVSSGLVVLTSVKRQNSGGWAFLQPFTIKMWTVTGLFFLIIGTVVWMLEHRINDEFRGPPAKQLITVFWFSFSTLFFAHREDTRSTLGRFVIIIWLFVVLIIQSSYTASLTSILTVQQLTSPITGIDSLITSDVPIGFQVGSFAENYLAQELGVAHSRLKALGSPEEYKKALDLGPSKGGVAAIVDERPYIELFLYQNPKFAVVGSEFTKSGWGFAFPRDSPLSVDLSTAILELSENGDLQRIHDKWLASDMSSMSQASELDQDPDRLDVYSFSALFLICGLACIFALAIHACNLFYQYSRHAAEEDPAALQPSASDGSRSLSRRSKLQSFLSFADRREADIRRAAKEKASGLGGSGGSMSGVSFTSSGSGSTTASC
Experimental: as §1, §2

GLR3.3 channel [2] = molecular target: T1, GLR3.3 channel; test: Whole-cell patch-clamp recording in HEK293 cells expressing GLR3.3; format: cell-based; design: expressed in transfected cells; host or cells: COS-7 (Ca2+ imaging) / HEK293 (patch clamp); conditions: HEK293 cells expressing GLR3.3 alone, free internal Ca2+ in pipette 1 μM, external Glu
Experimental: The whole-cell patch-clamp recordings were performed on an Axopatch 200B patch-clamp configuration with a Digidata 1550 digitizer (Axon Instruments) as described previously. Clampex 10.7 and Clampfit 10.7 software (Axon Instruments) were used for data acquisition and analysis.
To record Ca^2+ currents across plasma membrane of HEK293 cells, the bath solution contained 100 mM Na-glutamate, 40 mM NaCl, 5 mM KCl, 2 mM MgCl2, 10 mM CaCl2, 10 mM HEPES, and 10 mM glucose (pH 7.5, adjusted with NaOH). The pipette solution with 0 nM free Ca^2+ contained 140 mM CsCl, 5 mM EGTA, and 10 mM HEPES (pH 7.5, adjusted with CsOH), while the pipette solution with 1 μM free Ca^2+ contained 140 mM CsCl, 5 mM EGTA, 4.85 mM CaCl2) and 10 mM HEPES (pH 7.5, adjusted with CsOH). Free Ca^2+ was calculated with Webmaxc Standard software (https://somapp.ucdmc.ucdavis.edu/pharmacology/bers/maxchelator/webmaxc/webmaxcS.htm). A ramp voltage protocol of 2-s duration from −180 mV to +20 mV (holding potential 0 mV) was applied 1 min after achieving a whole-cell configuration, and currents were recorded every 20 s, with 5 repeats in total for each cell. The five current traces were used for statistical analysis to produce average current-voltage curves.

CaM7 = molecular target: T3, CaM7 (Arabidopsis thaliana, UniProt P59220); test: ITC (isothermal titration calorimetry) assay of CBD peptides with 6His-CaM7; format: binding; conditions: ratio of KD values
T3 construct: made in house; host or cells: Escherichia coli BL21 (DE3)
Experimental: ITC was carried out at 25° C. on a MicroCal iTC200 instrument (GE Healthcare). 250 μM of peptides were titrated against 20 μM of 6His-CaM7 proteins (purified by size-exclusion chromatography using Superdex 200 Increase 10/300 GL, GE Healthcare) in the reaction buffer (25 mM HEPES, 100 mM NaCl, pH 7.5) with addition of 1 mM Ca^2+ or 2 mM EGTA. Titrations were performed by an automated sequence of 20 injections spaced at 150-s intervals to ensure complete equilibration, and raw data were analyzed with Origin software (version 7.0) supplied with the instrument.

| CaM binding affinity lower than that of wild type CBD (CaM7) | SMILES | Glu-activated [Ca2+]cyt change (BoGLR3.3) | Glu-activated [Ca2+]cyt change (GLR3.3 channel [1]) | Glu-activated [Ca2+]cyt change (OsGLR3.1) | Glu-induced currents (GLR3.3 channel [2]) |
| --- | --- | --- | --- | --- | --- |
|  | N[C@@H](CCC(=O)O)C(=O)O [Glu, glutamate] | rapid [Ca^2+]cyt increases | rapid [Ca^2+]cyt increases | rapid [Ca^2+]cyt increases | large inward currents |
| approximately 10 fold | CC(C)C[C@H](NC(=O)[C@H](CO)NC(=O)[C@H](CC(C)C)NC(=O)[C@H](Cc1ccccc1)NC(=O)[C@H](CCCNC(=N)N)NC(=O)[C@H](CCC(N)=O)NC(=O)[C@H](CC(C)C)NC(=O)[C@H](CCCNC(=N)N)NC(=O)[C@@H](NC(=O)[C@H](CO)NC(=O)[C@H](CC(=O)O)NC(=O)[C@H](Cc1c[nH]cn1)NC(=O)[C@H](CC(N)=O)NC(=O)[C@H](CCC(N)=O)NC(=O)[C@H](CCC(N)=O)NC(=O)[C@H](CCC(N)=O)NC(=O)[C@@H](N)CC(=O)O)[C@@H](C)O)C(=O)O [mutated CBD peptide] |  |  |  |  |
